The term IC50 denotes the concentration needed to halve the response being measured. High values mean lower potency, low ones higher potency.

The assay deals with T1, RORγt ligand-binding domain (RORγt-LBD) (Homo sapiens, UniProt P51449).
T1 construct: 20 nM recombinantly expressed RORγ-LBD fused to GST
T1 sequence (P51449 269-508 limits assumed): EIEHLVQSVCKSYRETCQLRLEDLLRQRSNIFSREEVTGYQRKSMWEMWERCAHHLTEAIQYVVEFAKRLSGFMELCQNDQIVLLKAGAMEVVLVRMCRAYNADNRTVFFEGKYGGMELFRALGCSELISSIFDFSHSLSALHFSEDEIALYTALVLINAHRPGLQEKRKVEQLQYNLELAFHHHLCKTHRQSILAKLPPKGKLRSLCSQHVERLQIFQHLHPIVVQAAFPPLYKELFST
Briefly: Time-resolved FRET (TR-FRET) RORγt coactivator assay. It counts as biochemical. The settings on record: GST-RORγ-LBD, biotinylated RIP140 peptide, coactivator displacement.
Turning to `O=C(O)CCc1c[nH]c2ccc(NC(=O)NC(c3ccccc3)c3ccccc3N3CCCCC3)cc12` (stereo not shown) [compound 56, 3-{5-[({phenyl[2-(piperidin-1-yl)phenyl]methyl}carbamoyl)amino]-1H-indol-3-yl}propanoic acid], the IC50 was below 1 µM.

As for `CC(C)NC(=O)CCc1c[nH]c2ccc(CC(=O)NC(c3ccccc3)c3ccccc3N3CCCCC3)cc12` (stereo not shown) [compound 118, 3-{5-[({phenyl[2-(piperidin-1-yl)phenyl]methyl}carbamoyl)methyl]-1H-indol-3-yl}-N-(propan-2-yl)propanamide], the IC50 was below 1 µM.

Molecule `CC(C)CC(NC(=O)Cc1ccc2[nH]cc(CCC(=O)O)c2c1)c1ccccc1N1CCOCC1` (stereo not shown) [compound 58, 3-{5-[({3-methyl-1-[2-(morpholin-4-yl)phenyl]butyl}carbamoyl)methyl]-1H-indol-3-yl}propanoic acid] returned a 50% inhibitory concentration (IC50) below 1 µM.

`O=C(O)CCc1c[nH]c2ccc(CC(=O)NC(c3ccccc3)c3ccccc3N3CCCC(O)C3)cc12` (stereo not shown) [compound 124, 3-{5-[({[2-(3-hydroxypiperidin-1-yl)phenyl](phenyl)methyl}carbamoyl)methyl]-1H-indol-3-yl}propanoic acid]: the half-maximal inhibitory concentration (IC50) is 1 to 10 µM.

Molecule `O=C(O)CCc1c[nH]c2ncc(NC(=O)NC(c3ccccc3)c3ccccc3N3CCCCC3)cc12` (stereo not shown) [compound 95, 3-{5-[({phenyl[2-(piperidin-1-yl)phenyl]methyl}carbamoyl)amino]-1H-pyrrolo[2,3-b]pyridin-3-yl}propanoic acid] came in with a half-inhibitory concentration (IC50) of 1 to 10 µM.

Regarding `COC(=O)Cc1c[nH]c2ccc(NC(=O)NC(c3ccccc3)c3ccccc3N3CCCCC3)cc12` (stereo not shown) [Cpd. 68, methyl 2-{5-[({phenyl[2-(piperidin-1-yl)phenyl]methyl}carbamoyl)amino]-1H-indol-3-yl}acetate], the 50% inhibitory concentration (IC50) was 1 to 10 µM.

`Cc1ccc(C(NC(=O)Cc2ccc3[nH]cc(CCC(=O)OC(C)(C)C)c3c2)c2ncccn2)c(N2CCCCC2)c1` (stereo not shown) [Cpd. 131, tert-butyl 3-{5-[({[4-methyl-2-(piperidin-1-yl)phenyl](pyrimidin-2-yl)methyl}carbamoyl)methyl]-1H-indol-3-yl}propanoate] registered a half-inhibitory concentration (IC50) below 1 µM.

`Cc1ccc(C(NC(=O)Cc2ccc3[nH]cc(CCC(=O)OC(C)(C)C)c3c2)c2ccccc2)c(N)c1` (stereo not shown) [Cpd. 183, tert-butyl 3-[5-({[(2-amino-4-methylphenyl)(phenyl)methyl]carbamoyl}methyl)-1H-indol-3-yl]propanoate] yielded an IC50 of 1 to 10 µM.

Consider `CC(C)(C)OC(=O)CCc1c[nH]c2ccc(CC(=O)NC(c3ccccc3)c3ccccc3N3CCCC(O)C3)cc12` (stereo not shown) [Cpd. 123, tert-butyl 3-{5-[({[2-(3-hydroxypiperidin-1-yl)phenyl](phenyl)methyl}carbamoyl)methyl]-1H-indol-3-yl}propanoate], for which the IC50 is 1 to 10 µM.

Regarding `O=C(O)CCc1c[nH]c2ccc(CC(=O)NC(c3ccccc3)c3ccccc3N3CCC(F)(F)CC3)cc12` (stereo not shown) [compound 180, 3-{5-[({[2-(4,4-difluoropiperidin-1-yl)phenyl](phenyl)methyl}carbamoyl)methyl]-1H-indol-3-yl}propanoic acid], the IC50 was 1 to 10 µM.

For the molecule `Cc1cc(Cl)ccc1C(NC(=O)Cc1ccc2[nH]cc(CCC(=O)OC(C)(C)C)c2c1)c1ccccc1` (stereo not shown) [Cpd. 34, tert-butyl 3-[5-({[(4-chloro-2-methylphenyl)(phenyl)methyl]carbamoyl}methyl)-1H-indol-3-yl]propanoate], the 50% inhibitory concentration (IC50) lay in the range of 1 to 10 µM.

In turn, `COc1ccc(C(NC(=O)Cc2ccc3[nH]cc(CCC(=O)O)c3c2)c2ccccc2)c(C)c1` (stereo not shown) [compound 83, 3-[5-({[(4-methoxy-2-methylphenyl)(phenyl)methyl]carbamoyl}methyl)-1H-indol-3-yl]propanoic acid] returned an IC50 below 1 µM.

For the molecule `C#CCC(NC(=O)Cc1ccc2[nH]cc(CCC(=O)OC(C)(C)C)c2c1)c1ccccc1N1CCCCC1` (stereo not shown) [Cpd. 260, tert-butyl 3-{5-[({1-[2-(piperidin-1-yl)phenyl]but-3-yn-1-yl}carbamoyl)methyl]-1H-indol-3-yl}propanoate], the 50% inhibitory concentration (IC50) is 1 to 10 µM.

Source of the values: patent publication US9902725B2, “Heterocyclic derivatives as RORgamma modulators” (GENFIT, priority 2014, dated 2018).
